# Measured values taken from PMC11648915, “Identification and development of TRPM4 antagonists to counteract neuronal excitotoxicity” (iScience, 2024).
# pIC50: −log10 of the molar value. Entries after “also recorded” stand apart in the source; their conditions may differ. Where two headings read alike, the source gives them in different places.
# Legend:
# [1] = test system: broad panel of receptors, enzymes, and ion channels; assay: SafetyScreen44 in vitro pharmacology panel (whole panel); format: binding; conditions: SafetyScreen44, 5 μM; active = inhibition above 50%
# Method: We next used in vitro assays to test absorption, distribution, metabolism, excretion and toxicity (ADMET) parameters for selected compounds. We assessed compound absorption using parallel artificial membrane permeability (PAMPA) and Caco-2 cell permeability assays (cut-off criterion >2 × 10^−6 cm s^−1). Compound toxicity was evaluated by measuring inhibition of cytochrome P450 enzymes (CYP), the potassium channel human Ether-a-go-go Related Gene (hERG), and TRPM5, with all parameters meeting acceptable criteria. […] To assess potential off-target activity of our compounds that could be relevant for safety in humans, we conducted comprehensive in vitro pharmacology using the commercially available and widely used SafetyScreen44 interaction panel[60] covering eight protein families.
# For in vitro pharmacological profiling and determination of off target effects compound were screened at a 5 μM in duplicate for their potential to bind to a broad panel of receptors, enzymes, and ion channels on a commercially available platform (Safetyscreen 44 Panel; Eurofins Cerep, Le Bois l'Evêque, B.P. 30001, 86 600 Celle l'Evescault, France), Study ID FR095-0009609).
# [2] = In vivo pharmacokinetics after single i.p. or i.v. dose; conditions: female, C57BL/6J, mouse
# Method: Next, to assess in vivo availability of the Series 1–3 compounds, we evaluated drug metabolism and pharmacokinetics (DMPK). We measured compound concentrations in plasma, heart, and brain at several time points after intraperitoneal (i.p.) or intravenous (i.v.) single-dose injections.
# Half-life and bioavailability were calculated by noncompartmental analysis using the R package PK[84] (v1.3-6).
# mouse TRPM4 = molecular target: T1, mouse TRPM4 (Mus musculus, UniProt Q7TN37); assay: Inside-out patch clamp, mouse TRPM4; format: cell-based; conditions: inside-out patch clamp configuration
# T1 construct: Human TRPM4 (UniProtKB: Q8TD43-1) and mouse Trpm4 (UniProtKB: Q7TN37-1) were amplified via PCR; eGFP (C); expressed in transfected cells
# T1 sequence (Q7TN37 whole entry): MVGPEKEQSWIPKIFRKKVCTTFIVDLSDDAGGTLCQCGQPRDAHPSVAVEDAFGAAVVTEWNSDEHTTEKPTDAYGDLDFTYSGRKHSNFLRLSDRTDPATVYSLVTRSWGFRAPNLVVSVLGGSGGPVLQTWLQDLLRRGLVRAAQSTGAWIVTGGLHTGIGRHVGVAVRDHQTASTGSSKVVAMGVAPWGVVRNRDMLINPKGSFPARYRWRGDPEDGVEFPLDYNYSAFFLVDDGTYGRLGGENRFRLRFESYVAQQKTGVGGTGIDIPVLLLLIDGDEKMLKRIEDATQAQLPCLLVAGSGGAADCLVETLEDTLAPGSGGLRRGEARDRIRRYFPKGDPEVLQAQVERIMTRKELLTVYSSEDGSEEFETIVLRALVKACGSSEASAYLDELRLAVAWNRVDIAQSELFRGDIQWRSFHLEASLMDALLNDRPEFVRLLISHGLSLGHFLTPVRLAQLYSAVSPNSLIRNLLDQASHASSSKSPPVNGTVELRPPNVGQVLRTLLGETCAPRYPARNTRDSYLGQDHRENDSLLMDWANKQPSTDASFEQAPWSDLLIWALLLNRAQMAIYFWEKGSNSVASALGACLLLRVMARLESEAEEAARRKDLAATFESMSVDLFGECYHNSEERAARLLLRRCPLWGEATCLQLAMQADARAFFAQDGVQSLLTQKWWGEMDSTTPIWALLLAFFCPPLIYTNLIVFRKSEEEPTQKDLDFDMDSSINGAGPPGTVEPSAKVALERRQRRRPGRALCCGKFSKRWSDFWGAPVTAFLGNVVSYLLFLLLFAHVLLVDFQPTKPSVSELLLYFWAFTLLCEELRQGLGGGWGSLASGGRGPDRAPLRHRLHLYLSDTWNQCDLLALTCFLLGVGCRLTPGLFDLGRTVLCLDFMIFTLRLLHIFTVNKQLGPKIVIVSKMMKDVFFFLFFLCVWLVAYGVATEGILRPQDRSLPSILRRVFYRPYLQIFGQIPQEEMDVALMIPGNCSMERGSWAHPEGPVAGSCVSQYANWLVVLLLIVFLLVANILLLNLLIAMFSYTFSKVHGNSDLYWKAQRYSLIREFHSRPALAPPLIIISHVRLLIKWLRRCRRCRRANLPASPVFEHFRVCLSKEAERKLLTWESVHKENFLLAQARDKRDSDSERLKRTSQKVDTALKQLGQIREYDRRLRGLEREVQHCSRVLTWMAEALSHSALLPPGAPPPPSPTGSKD
# [3] = molecular target: hsTRPM4 L907A, S924A and L907A/S924A mutants (Homo sapiens, UniProt Q8TD43, L907A/S924A); assay: Whole-cell patch clamp of wild-type and binding-site mutant hsTRPM4; conditions: whole-cell voltage clamp
# hsTRPM4 L907A, S924A and L907A/S924A mutants (Homo sapiens, UniProt Q8TD43, L907A/S924A), sequence (Q8TD43 whole entry L907A/S924A): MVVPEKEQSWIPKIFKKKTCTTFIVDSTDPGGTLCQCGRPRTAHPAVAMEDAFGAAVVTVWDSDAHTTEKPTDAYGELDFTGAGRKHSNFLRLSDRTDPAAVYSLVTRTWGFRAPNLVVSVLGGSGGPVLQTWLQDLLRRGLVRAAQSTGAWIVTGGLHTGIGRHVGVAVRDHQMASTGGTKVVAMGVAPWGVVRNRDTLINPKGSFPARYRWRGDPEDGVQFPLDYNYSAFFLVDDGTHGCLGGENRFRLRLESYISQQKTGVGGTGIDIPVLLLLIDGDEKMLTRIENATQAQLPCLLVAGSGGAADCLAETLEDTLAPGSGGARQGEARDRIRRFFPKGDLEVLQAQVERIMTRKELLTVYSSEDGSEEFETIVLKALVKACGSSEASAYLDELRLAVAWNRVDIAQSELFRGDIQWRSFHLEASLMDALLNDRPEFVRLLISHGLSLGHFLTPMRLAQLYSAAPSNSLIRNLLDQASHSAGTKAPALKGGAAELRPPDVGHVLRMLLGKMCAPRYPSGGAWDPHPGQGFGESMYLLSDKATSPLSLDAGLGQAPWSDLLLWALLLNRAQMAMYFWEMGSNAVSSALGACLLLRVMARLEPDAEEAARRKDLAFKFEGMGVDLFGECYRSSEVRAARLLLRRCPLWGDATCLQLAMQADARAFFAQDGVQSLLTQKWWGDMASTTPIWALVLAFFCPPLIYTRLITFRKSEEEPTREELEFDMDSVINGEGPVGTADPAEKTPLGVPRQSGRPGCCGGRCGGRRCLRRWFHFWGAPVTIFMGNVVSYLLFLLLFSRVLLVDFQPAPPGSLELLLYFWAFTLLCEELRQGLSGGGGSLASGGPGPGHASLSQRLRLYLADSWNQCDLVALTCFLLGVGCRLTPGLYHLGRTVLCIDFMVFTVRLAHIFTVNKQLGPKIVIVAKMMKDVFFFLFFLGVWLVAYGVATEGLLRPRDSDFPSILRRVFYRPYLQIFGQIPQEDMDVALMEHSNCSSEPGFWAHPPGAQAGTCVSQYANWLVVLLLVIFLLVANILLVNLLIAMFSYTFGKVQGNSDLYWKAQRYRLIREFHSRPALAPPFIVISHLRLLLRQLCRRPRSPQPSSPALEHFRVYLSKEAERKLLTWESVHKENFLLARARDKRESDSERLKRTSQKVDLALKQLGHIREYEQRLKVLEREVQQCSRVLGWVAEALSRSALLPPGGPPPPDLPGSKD
# Description: (§1) Initially, we assessed the basic properties of the hsTRPM4 mutants using whole-cell patch clamp electrophysiology.
# [4] = test system: hsTRPM4 L907A, S924A and L907A/S924A mutants; assay: as above; conditions: whole-cell voltage clamp, HEK293T
# Description: as §1
# human TRPM4 [5] = molecular target: T2, human TRPM4 (Homo sapiens, UniProt Q8TD43); assay: Inside-out patch clamp, human TRPM4; format: cell-based; design: Human TRPM4 (UniProtKB: Q8TD43-1) and mouse Trpm4 (UniProtKB: Q7TN37-1) were amplified via PCR; expressed in transfected cells; conditions: inside-out patch clamp configuration
# T2 sequence (Q8TD43 whole entry): as the sequence (Q8TD43 whole entry L907A/S924A) above, with A907L, A924S counted along it
# Method: Patch clamp recordings were conducted using an EPC10 patch clamp amplifier and Patchmaster software (HEKA, Germany). An Ag/AgCl wire served as the reference electrode in all experiments. […] Liquid junction potential was compensated before achieving gigaseal formation. All experiments were conducted at room temperature. Whole-cell currents were recorded in transiently transfected HEK293 cells expressing either wildtype human TRPM4, TRPM4-L907A, or TRPM4-S924A. Recordings involved a 400 ms increasing voltage ramp from –100 mV to +100 mV, initiated from a holding potential of 0 mV. The interval between each sweep was 2 seconds, with data sampled at 5 kHz. […] To identify TRPM4 currents, extracellular Na^+ was replaced with equimolar NMDG^+. […] Similar to whole-cell recordings, a 400 ms increasing voltage ramp from –100 mV to +100 mV was applied from a holding potential of 0 mV. The interval between sweeps was 2 seconds, and data were sampled at 5 kHz. […] TRPM4 currents were activated by 500 μM CaCl2 and deactivated by 10 mM EGTA, both added to the intracellular solution. Ca^2+ activation curves were fitted using a likelihood maximization algorithm to estimate the parameters for the sigmoidal fitting curves y-maximum, slope and midpoint as part of the R package sicegar (V0.2.4).
# human TRPM4 [6] = molecular target: T2, human TRPM4; assay: QPatch automated patch clamp on TRPM4-expressing HEK293 cells; format: cell-based; conditions: hsTRPM4-expressing HEK293 cells
# Method: QPatchHTX, an automated electrophysiology platform, was used in single hole mode. One day before use human TRPM4- or TRPM5-expressing HEK293 cells were seeded in a T75 flask at a density of 53k cells per cm^2 and at passages < 23. […] The extracellular solution was (in mM): CaCl2 (7), MgCl2 (2), KCl (5), HEPES (10), NaCl (70), NMDG (70); pH 7.4 with NaOH. The intracellular solution was (in mM): HEPES (10), NMDG (100), NaCl (50), EGTA (20), MgCl2 (1), CaCl2 (21); pH 7.2 with HCl. […] This protocol was repeated every 7 seconds. […] FFA was used as reference compound and applied cumulatively with each concentration incubating at a minimum of 20 voltage protocol runs (140 seconds) with the current after addition of FFA being calculated as full block. […] Each compound was measured at least 3 time independently.
# [7] = test system: primary mouse neuronal cultures; assay: Glutamate-induced excitotoxicity assay (RealTime-Glo viability); format: cell-based; conditions: 5 μM
# Method: To evaluate the in vitro efficacy of our developed compounds, we employed primary mouse neuronal cultures (PNCs) and conducted glutamate-induced excitotoxicity assays. Cultures were pre-treated with respective Series 1 and Series 3 compounds before glutamate exposure, and neuronal viability was assessed 15 h post-stimulation with glutamate.
# Figure 3 Neuroprotective in vitro evaluation and in vivo pharmacokinetics (A) In vitro evaluation of compound activity on glutamate-induced excitotoxicity in mature primary neuronal cultures. Neuronal cultures were treated with 5 μM of the specified compound or vehicle control 5 h prior to glutamate stimulation, assessing compound rescue activity and toxicity relative to minimal (Vehicle +0 μM Glu) and maximal (Vehicle +50 μM Glu) excitotoxicity. Time course of a representative compound with virtual endpoint at 15 h post stimulation and assay window definition (left). Toxicity of compound treated cultures with and without glutamate stimulation (right). Data are represented as mean and 95% confidence interval; n ≥ 4; ∗p < 0.05, ∗∗p < 0.01, ∗∗∗p < 0.001; One-sample Wilcoxon signed-rank test. […] Mitochondrial membrane potential was measured by the mean fluorescence intensity of TMRE normalized to MitoTracker. Data are represented as mean ± SEM; n = 5; paired t-test. (C) In vivo pharmacokinetics of four selected compounds. Time course of compound concentration in the brain, heart, and plasma after a single dose via intraperitoneal (i.p.) or intravenous (i.v.) application. Data are represented as mean ± SEM. Half-life estimates by non-compartmental analysis are shown as vertical line and IC50 value as dashed horizontal line. (D) Compound concentration in the brain relative to respective IC50 concentrations after a single dose via intra-peritoneal or intra-venous routes. Also see Figure S6.
# Excitotoxicity assays were performed using primary mouse neuronal cultures between 14 and 17 days in vitro (DIV). Cell viability was measured using RealTime-Glo MT Cell Viability Assay (Promega, catalog no. G9711) according to the manufacture protocol. Compounds were co-administered with RealTime-Glo reagents, and luciferase measurements were conducted using the Tecan-Spark M10 microplate reader with environmental control set to 37°C and 5% CO2. Neuronal cultures were stimulated with either glutamate or vehicle five hours after compound application and monitored for an additional 20 hours. To adjust for inter-well variability, arbitrary light units were normalized to a steady signal prior to glutamate addition for each well. Toxicity was calculated relative to the minimal cell viability at 15 hours post glutamate stimulation and cell viability of the PBS vehicle control.
# [8] = test system: primary mouse neuronal cultures; assay: TMRE assay of mitochondrial membrane potential after glutamate; format: cell-based; conditions: 50 μM glutamate for 2 h, compound 30 min before
# Method: We assessed its ability to inhibit the deterioration of mitochondrial membrane potential (ΔΨm) in response to glutamate-induced excitotoxicity. The ratio between the ΔΨm-dependent dye tetramethylrhodamine ethyl ester (TMRE) and the mitochondrial dye MitoTracker was quantified for this purpose.
# Subsequently 50 μM glutamate was applied for in total 2 hours. Then, 20 nM TMRE dye (Abcam, ab113852), 500 nM MitoTracker dye (ThermoFisher, M7512), and 1 μM Hoechst 33342 were added after 1.5 hours glutamate stimulation for 30 minutes. Afterwards cells were washed two times in pre-warmed medium and were imaged immediately in preconditioned medium using a confocal microscope (Zeiss, LSM700) with 20-fold magnification and controlled atmosphere conditions (37°C, 5% CO2). Imaging time was less than 10 minutes per condition. We quantified the total MFI of the MitoTracker and TMRE dyes per cell. At least 50 cells per condition were quantified and the mean ratios of TMRE to Mitotracker per independent experiments were reported.
"half-life ([2]; brain, ip, read-out: Brain half-life (converted)) [h]","half-life ([2]; brain, iv, read-out: Brain half-life (converted)) [h]","half-life ([2]; heart, ip, read-out: Heart half-life (converted)) [h]","half-life ([2]; heart, iv, read-out: Heart half-life (converted)) [h]","half-life ([2]; plasma, ip, read-out: Plasma half-life (converted)) [h]","half-life ([2]; plasma, iv, read-out: Plasma half-life (converted)) [h]",Compound,Off-target binding in in vitro pharmacology panel [1],Activity on mouse TRPM4 (mouse TRPM4),Affinity in the L907A/S924A double mutant [3],Current inhibition of hsTRPM4 L907A and S924A mutants versus wildtype [4],Activity on human TRPM4 (human TRPM4 [5]),pIC50 (human TRPM4 [6]),Protective effect in excitotoxicity assay ([7]; glutamate-stimulated primary mouse neuronal cultures),Compound toxicity in neuronal cultures ([7]; primary mouse neuronal cultures),"Mitochondrial membrane potential (ΔΨm), TMRE / MitoTracker ratio [8]"
1.4,0.3,1.1,1.3,0.9,0.5,O=C(CCc1ccccc1)Nc1ccc(Br)cc1C(=O)O [CMP233],no off-target binding,highly effective in both species; also recorded: active on both species,completely abolished,significantly reduced current inhibition in at least one hsTRPM4 mutant variant,highly effective in both species; also recorded: active on both species,–,–,–,–
–,–,–,–,–,–,COc1cccc(-c2ccccc2NCc2nc3ccccc3o2)c1 [CMP312],–,reduced activity on mouse TRPM4 compared to human TRPM4; also recorded: significantly less effective on mouse TRPM4,completely abolished,significantly reduced current inhibition in at least one hsTRPM4 mutant variant,almost completely blocked,5.31,potent protective effects,non-toxicity,mitigated the glutamate-induced decrease in ΔΨm
